Data: ChEMBL document CHEMBL4033638, “Effect of natural and semi-synthetic cadinanes from Heterotheca inuloides on NF-κB, Nrf2 and STAT3 signaling pathways and evaluation of their in vitro cytotoxicity in human cancer cell lines” (Bioorg Med Chem, 2017)
Calls of active or inactive are those of the source. The calls are words filed in the database; no cut-off is given here.

Experiments:
[1] = Inhibition of TNFalpha-stimulated NFkappaB (unknown origin) expressed in mouse NIH-3T3-KBFLuc cells at 50 uM after 6 hrs by luciferase reporter gene assay relative to control; assay type: cell-based; settings: Homo sapiens
[2] = target: T1, Nuclear factor erythroid 2-related factor 2 (Homo sapiens) (UniProt Q16236); assay: Activation of Nrf2 in human HaCaT-ARE-Luc cells at 50 uM after 6 hrs by luciferase reporter gene assay relative to control; assay type: cell-based
T1 sequence (whole entry): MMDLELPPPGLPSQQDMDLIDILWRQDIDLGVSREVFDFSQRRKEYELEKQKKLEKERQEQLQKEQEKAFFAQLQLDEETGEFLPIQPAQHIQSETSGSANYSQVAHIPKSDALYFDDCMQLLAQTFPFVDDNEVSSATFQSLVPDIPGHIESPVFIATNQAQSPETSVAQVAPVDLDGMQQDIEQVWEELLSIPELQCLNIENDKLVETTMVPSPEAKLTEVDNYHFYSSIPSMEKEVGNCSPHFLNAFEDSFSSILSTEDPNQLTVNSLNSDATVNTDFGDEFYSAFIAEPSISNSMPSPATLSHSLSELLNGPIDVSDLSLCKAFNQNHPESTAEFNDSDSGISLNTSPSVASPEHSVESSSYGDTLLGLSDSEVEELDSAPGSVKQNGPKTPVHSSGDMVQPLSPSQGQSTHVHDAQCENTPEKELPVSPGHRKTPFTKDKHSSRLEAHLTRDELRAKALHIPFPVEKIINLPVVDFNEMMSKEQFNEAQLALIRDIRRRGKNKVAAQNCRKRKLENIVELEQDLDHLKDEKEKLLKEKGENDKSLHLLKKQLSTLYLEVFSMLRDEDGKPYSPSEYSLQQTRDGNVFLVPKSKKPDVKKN

[3] = target: Signal transducer and activator of transcription 3 (Homo sapiens) (UniProt P40763); assay: Inhibition of IFNgamma-stimulated STAT3 (unknown origin) activation expressed in human HeLa cells at 50 uM after 6 hrs by luciferase reporter gene assay relative to control; assay type: cell-based
U-251 [4] = assay: Antiproliferative activity against human U251 cells at 50 uM after 48 hrs by sulforhodamine B assay relative to control; assay type: functional; settings: U-251, 48 h
U-251 [5] = assay: Antiproliferative activity against human U251 cells after 48 hrs by sulforhodamine B assay; assay type: functional, cell-based; settings: U-251, 48 h
PC-3 [6] = assay: Antiproliferative activity against human PC3 cells at 50 uM after 48 hrs by sulforhodamine B assay relative to control; assay type: functional; settings: PC-3, 48 h
PC-3 [7] = assay: Antiproliferative activity against human PC3 cells after 48 hrs by sulforhodamine B assay; assay type: functional, cell-based; settings: PC-3, 48 h
K562 [8] = assay: Antiproliferative activity against human K562 cells at 50 uM after 48 hrs by sulforhodamine B assay relative to control; assay type: functional; settings: K562, 48 h
K562 [9] = assay: Antiproliferative activity against human K562 cells after 48 hrs by sulforhodamine B assay; assay type: functional, cell-based; settings: K562, 48 h
HCT-15 [10] = assay: Antiproliferative activity against human HCT15 cells at 50 uM after 48 hrs by sulforhodamine B assay relative to control; assay type: functional; settings: HCT-15, 48 h
HCT-15 [11] = assay: Antiproliferative activity against human HCT15 cells after 48 hrs by sulforhodamine B assay; assay type: functional, cell-based; settings: HCT-15, 48 h
MCF7 [12] = assay: Antiproliferative activity against human MCF7 cells at 50 uM after 48 hrs by sulforhodamine B assay relative to control; assay type: functional; settings: MCF7, 48 h
SK-LU-1 [13] = assay: Antiproliferative activity against human SK-LU-1 cells at 50 uM after 48 hrs by sulforhodamine B assay relative to control; assay type: functional; settings: SK-LU-1, 48 h
SK-LU-1 [14] = assay: Antiproliferative activity against human SK-LU-1 cells after 48 hrs by sulforhodamine B assay; assay type: functional, cell-based; settings: SK-LU-1, 48 h
[15] = Cytotoxicity against human gingival fibroblasts assessed as decrease in cell viability at 50 uM after 48 hrs by sulforhodamine B dye-based assay; settings: gingival fibroblast
MCF7 [16] = assay: Antiproliferative activity against human MCF7 cells after 48 hrs by sulforhodamine B assay; assay type: functional, cell-based; settings: MCF7, 48 h
[17] = Cytotoxicity against human gingival fibroblasts assessed as decrease in cell viability at 50 uM after 48 hrs by sulforhodamine B dye-based assay relative to control; settings: gingival fibroblast
[18] = Inhibition of TNFalpha-stimulated NFkappaB (unknown origin) expressed in mouse NIH-3T3-KBFLuc cells preincubated for 15 mins followed by TNFalpha stimulation for 6 hrs by luciferase reporter gene assay; assay type: cell-based; settings: Homo sapiens
HaCaT [19] = assay: Induction of ROS accumulation in human HaCaT cells at 10 to 100 uM by CM-H2DCFDA dye-based fluorescence assay; assay type: functional, cell-based
Mus musculus = species on record: Mus musculus; assay: Inhibition of IKK in mouse NIH-3T3-KBF-Luc cells assesed as downregulation of TNFalpha-stimulated phospho-IkappaBalpha protein expression levels at 10 to 100 uM preincubated for 15 mins followed by TNFalpha stimulation for 20 mins by Western blot analysis
NIH3T3 = assay: Cytotoxicity against mouse NIH/3T3 cells infected with lentivirus encoding nuclear restricted red fluorescent protein assessed as reduction in cell viability up to 100 uM after 6 hrs by microscopic method; assay type: cell-based; settings: nih3t3, 6 h
HaCaT [20] = assay: Antioxidant activity in human HaCaT cells assessed as inhibition of TBHP-induced ROS accumulation by measuring ROS level at 10 uM preincubated with cells followed by TBHP addition by CM-H2DCFDA dye-based fluorescence assay relative to control; assay type: functional; design: scale not given: the % may be the effect or the level left
HaCaT [21] = assay: Antioxidant activity in human HaCaT cells assessed as inhibition of TBHP-induced ROS accumulation by measuring ROS level at 25 uM preincubated with cells followed by TBHP addition by CM-H2DCFDA dye-based fluorescence assay relative to control; assay type: functional; design: scale not given: the % may be the effect or the level left
HaCaT [22] = assay: Antioxidant activity in human HaCaT cells assessed as inhibition of TBHP-induced ROS accumulation by measuring ROS level at 50 uM preincubated with cells followed by TBHP addition by CM-H2DCFDA dye-based fluorescence assay relative to control; assay type: functional; design: scale not given: the % may be the effect or the level left
HaCaT [23] = assay: Antioxidant activity in human HaCaT cells assessed as inhibition of TBHP-induced ROS accumulation by measuring ROS level at 75 uM preincubated with cells followed by TBHP addition by CM-H2DCFDA dye-based fluorescence assay relative to control; assay type: functional; design: scale not given: the % may be the effect or the level left
HaCaT [24] = assay: Antioxidant activity in human HaCaT cells assessed as inhibition of TBHP-induced ROS accumulation by measuring ROS level at 100 uM preincubated with cells followed by TBHP addition by CM-H2DCFDA dye-based fluorescence assay relative to control; assay type: functional; design: scale not given: the % may be the effect or the level left
HaCaT [25] = assay: Antioxidant activity in human HaCaT cells assessed as inhibition of TBHP-induced ROS accumulation by measuring ROS level preincubated with cells followed by TBHP addition by CM-H2DCFDA dye-based fluorescence assay relative to control; assay type: functional; design: scale not given: the % may be the effect or the level left

Sequence of Signal transducer and activator of transcription 3 (Homo sapiens) (P40763 whole entry): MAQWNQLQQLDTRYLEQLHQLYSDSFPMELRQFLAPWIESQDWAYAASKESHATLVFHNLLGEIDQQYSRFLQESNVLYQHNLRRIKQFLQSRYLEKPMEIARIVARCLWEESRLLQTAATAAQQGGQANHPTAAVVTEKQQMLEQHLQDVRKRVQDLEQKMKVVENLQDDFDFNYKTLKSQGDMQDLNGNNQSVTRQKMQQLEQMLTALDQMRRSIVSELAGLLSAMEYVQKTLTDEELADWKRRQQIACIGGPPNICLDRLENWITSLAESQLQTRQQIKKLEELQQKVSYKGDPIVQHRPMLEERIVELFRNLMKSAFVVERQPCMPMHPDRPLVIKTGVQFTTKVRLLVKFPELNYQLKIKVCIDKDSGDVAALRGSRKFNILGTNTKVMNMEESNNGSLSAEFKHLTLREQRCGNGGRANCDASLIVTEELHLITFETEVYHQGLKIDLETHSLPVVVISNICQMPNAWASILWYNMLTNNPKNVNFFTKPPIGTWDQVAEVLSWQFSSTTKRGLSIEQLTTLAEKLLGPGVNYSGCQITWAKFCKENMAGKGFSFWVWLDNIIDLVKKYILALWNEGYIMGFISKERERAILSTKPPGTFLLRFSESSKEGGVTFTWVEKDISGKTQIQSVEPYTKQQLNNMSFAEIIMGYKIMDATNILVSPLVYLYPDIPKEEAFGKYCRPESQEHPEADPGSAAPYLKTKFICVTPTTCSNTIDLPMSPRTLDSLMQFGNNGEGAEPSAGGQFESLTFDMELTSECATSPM

| Structure (SMILES) | inhibition [1] [%] | fold change (FC) [2] | inhibition [3] [%] | inhibition at 50 µM (U-251 [4]) [%] | IC50 (U-251 [5]) [µM] | inhibition at 50 µM (PC-3 [6]) [%] | IC50 (PC-3 [7]) [µM] | inhibition at 50 µM (K562 [8]) [%] | IC50 (K562 [9]) [µM] | inhibition at 50 µM (HCT-15 [10]) [%] | IC50 (HCT-15 [11]) [µM] | inhibition at 50 µM (MCF7 [12]) [%] | inhibition at 50 µM (SK-LU-1 [13]) [%] | IC50 (SK-LU-1 [14]) [µM] | IC50 (MCF7 [16]) [µM] | Activity [17] [%] | IC50 [18] [µM] | Activity (NIH3T3) | other results |
| --- | --- | --- | --- | --- | --- | --- | --- | --- | --- | --- | --- | --- | --- | --- | --- | --- | --- | --- | --- |
| Cc1cc2c(C(C)C)ccc(C)c2cc1OC(=O)Nc1ccccc1 | 13.3 | 1.4 | 3 | 100 | 15.8 | 44.7 | 8.62 | 100 | 14 | 84.7 | 3.88 | 100 | 90.4 | 10.1 |  |  |  |  | Activity [15]: Non-Toxic |
| Cc1cc2c(C(C)C)ccc(C)c2cc1OC(=O)c1ccc([N+](=O)[O-])cc1 | 18.5 | 1.8 | 1.6 | 100 | 7.75 | 100 | 17.6 | 100 | 2.28 | 97.6 | 7.88 | 100 | 100 | 9.37 | 7.9 | 43.03 |  |  |  |
| CC1=CC[C@H](C(C)C)c2cc(C)c(OC(=O)c3ccc(C)cc3)cc21 | 76 | 9.4 | 3.1 | 67.7 |  | 49.6 |  | 100 | 30.9 | 78.9 | 40.3 | 65 | 85.4 | 33.9 |  |  | 47.1 | Non-Toxic | Activity (HaCaT [19]): inactive; inhibition (Mus musculus): Active; Activity (HaCaT [20]): 74.7%; Activity (HaCaT [21]): 64.5%; Activity (HaCaT [22]): 55.8%; Activity (HaCaT [23]): 52%; Activity (HaCaT [24]): 25.9% |
| CC1=CC[C@H](C(C)C)c2cc(C)c(O)cc21 | 50.8 | 3.1 | 2.1 |  |  |  |  |  |  |  |  |  |  |  |  |  | 72 | Non-Toxic |  |
| CC(=O)N[C@@H](CS)C(=O)O [ACETYLCYSTEINE] |  |  |  |  |  |  |  |  |  |  |  |  |  |  |  |  |  |  | Activity (HaCaT [25]): 1% |
| Cc1ccc(C(=O)Oc2cc3c(C)ccc(C(C)C)c3cc2C)cc1 | 30.3 | 1.8 | 2.9 | 100 | 22.8 | 72.3 | 23.7 | 100 | 8.37 | 86.5 | 12 | 90.2 | 100 | 10.2 | 8.2 | 13.37 |  |  |  |
| Cc1cc2c(C(C)C)ccc(C)c2cc1O | 61.5 | 1.7 | 3.5 |  |  |  |  |  |  |  |  |  |  |  |  |  | 16.5 | Non-Toxic |  |
| CC1=CC[C@H](C(C)C)c2cc(C)c(OC(=O)Nc3ccccc3)cc21 | 4.2 | 1.6 | 3.3 | 100 | 0.46 | 93.2 | 7.93 | 92.6 | 0.3 | 92 | 0.03 | 75.1 | 100 | 0.12 | 4.05 | 38.24 |  |  |  |
